Source: patent US5622966A, “7-substituted quinolones and naphthyridones as antibacterial agents” (Warner-Lambert Company, priority 1995, dated 1997)
Converted amounts (≈) assume the structure as drawn.

Columns and labels:
Test in all cases: In vitro antibacterial activity, microtitration dilution method (MIC)
Format in all cases: cell-based
E. coli Vogel = details: Escherichia coli, read-out: Minimal Inhibitory Concentration MIC
From the text: (§1) The compounds of the invention display antibacterial activity when tested by the microtitration dilution method as described in Heifetz, et al, Antimicr. Agents & Chemoth. 6:124 (1974), which is incorporated herein by reference.
(§2) By use of the above reference method, the following minimum inhibitory concentration value (MICs in μg/mL) shown in Table I were obtained for representative compounds of the invention.

Enter. cloac. = details: read-out: Minimal Inhibitory Concentration MIC
From the text: as §1, §2

Kleb. pneu. = details: read-out: Minimal Inhibitory Concentration MIC
From the text: as §1, §2

Prot. rettg. = details: read-out: Minimal Inhibitory Concentration MIC
From the text: as §1, §2

Pseu. aeru. = details: read-out: Minimal Inhibitory Concentration MIC
From the text: as §1, §2

S. aureus R = details: Staphylococcus aureus, read-out: Minimal Inhibitory Concentration MIC
From the text: as §1, §2

S. aureus S = details: Staphylococcus aureus, read-out: Minimal Inhibitory Concentration MIC
From the text: as §1, §2

Streptococcus faec. = details: read-out: Minimal Inhibitory Concentration MIC
From the text: as §1, §2

Streptococcus pneum. = details: read-out: Minimal Inhibitory Concentration MIC
From the text: as §1, §2

Streptococcus pyog. = details: read-out: Minimal Inhibitory Concentration MIC
From the text: as §1, §2

Structure (SMILES)	MIC (E. coli Vogel) [µg/mL]	MIC (Enter. cloac.) [µg/mL]	MIC (Kleb. pneu.) [µg/mL]	MIC (Prot. rettg.) [µg/mL]	MIC (Pseu. aeru.) [µg/mL]	MIC (S. aureus R) [µg/mL]	MIC (S. aureus S) [µg/mL]	MIC (Streptococcus faec.) [µg/mL]	MIC (Streptococcus pneum.) [µg/mL]	MIC (Streptococcus pyog.) [µg/mL]
CNCc1ccc(C2CCN(c3c(F)c(N)c4c(=O)c(C(=O)O)cn(C5CC5)c4c3F)C2)cc1 (stereo not shown) [Example 15, 5-Amino-1-cyclopropyl-6,8-difluoro-1,4-dihydro-7-[3-[4-[(methylamino)methyl]phenyl]-1-pyrrolidinyl]-4-oxo-3-quinolinecarboxylic acid]	0.2 (≈ 0.427 µM)	0.2 (≈ 0.427 µM)	0.4 (≈ 0.854 µM)	0.4 (≈ 0.854 µM)	1.6 (≈ 3.42 µM)	0.013 (≈ 0.0277 µM)	0.006 (≈ 0.0128 µM)	0.025 (≈ 0.0534 µM)	0.013 (≈ 0.0277 µM)	0.013 (≈ 0.0277 µM)
O=C(O)c1cn(C2CC2)c2cc(N3CCC(c4cccnc4)C3)c(F)cc2c1=O (stereo not shown) [Example 21, 1-Cyclopropyl-6-fluoro-1,4-dihydro-4-oxo-7-[3-(3-pyridinyl)-1-pyrrolidinyl]-3-quinolinecarboxylic acid]	0.1 (≈ 0.254 µM)	0.1 (≈ 0.254 µM)	0.2 (≈ 0.508 µM)	0.2 (≈ 0.508 µM)	0.8 (≈ 2.03 µM)	0.006 (≈ 0.0153 µM)	≤ 0.003	0.025 (≈ 0.0635 µM)	0.025 (≈ 0.0635 µM)	0.025 (≈ 0.0635 µM)
CNCc1cccc(C2CCN(c3c(F)c(N)c4c(=O)c(C(=O)O)cn(C5CC5)c4c3F)C2)c1 (stereo not shown) [Example 13, 5-Amino-1-cyclopropyl-6,8-difluoro-1,4-dihydro-7-[3-[3-[(methylamino)methyl]phenyl]-1-pyrrolidinyl]-4-oxo-3-quinolinecarboxvlic acid]	0.2 (≈ 0.427 µM)	0.2 (≈ 0.427 µM)	0.4 (≈ 0.854 µM)	0.8 (≈ 1.71 µM)	1.6 (≈ 3.42 µM)	0.05 (≈ 0.107 µM)	0.013 (≈ 0.0277 µM)	0.05 (≈ 0.107 µM)	0.05 (≈ 0.107 µM)	0.05 (≈ 0.107 µM)
NCc1ccccc1C1CCN(c2nc3c(cc2F)c(=O)c(C(=O)O)cn3C2CC2)C1 (stereo not shown) [Example 1, 7-[3-[2-(Aminomethyl)phenyl]-1-pyrrolidinyl]-1-cyclopropyl-6-fluoro-1,4-dihydro-4-oxo-1,8-naphthyridine-3-carboxylic acid]	0.1 (≈ 0.237 µM)	0.1 (≈ 0.237 µM)	0.2 (≈ 0.473 µM)	0.4 (≈ 0.947 µM)	1.6 (≈ 3.79 µM)	0.05 (≈ 0.118 µM)	0.013 (≈ 0.0308 µM)	0.05 (≈ 0.118 µM)	0.025 (≈ 0.0592 µM)	0.025 (≈ 0.0592 µM)
CNCc1ccc(C2CCN(c3cc4c(cc3F)c(=O)c(C(=O)O)cn4C3CC3)C2)cc1 (stereo not shown) [Example 14, 1-Cyclopropyl-6-fluoro-1,4-dihydro-7-[3-[4-[(methylamino)methyl]phenyl]-1-pyrrolidinyl]-4-oxo-3-quinolinecarboxylic acid]	0.2 (≈ 0.459 µM)	0.2 (≈ 0.459 µM)	0.4 (≈ 0.918 µM)	0.4 (≈ 0.918 µM)	1.6 (≈ 3.67 µM)	0.013 (≈ 0.0299 µM)	0.006 (≈ 0.0138 µM)	0.025 (≈ 0.0574 µM)	0.013 (≈ 0.0299 µM)	0.013 (≈ 0.0299 µM)
Nc1c(F)c(N2CCC(c3ccncc3)C2)c(F)c2c1c(=O)c(C(=O)O)cn2C1CC1 (stereo not shown) [Example 25, 5-Amino-1-cyclopropyl-6,8-difluoro-1,4-dihydro-4-oxo-7-[3-(4-pyridinyl)-1-pyrrolidinyl]-3-quinoline-carboxylic acid]	0.2 (≈ 0.469 µM)	0.2 (≈ 0.469 µM)	0.4 (≈ 0.938 µM)	0.4 (≈ 0.938 µM)	3.1 (≈ 7.27 µM)	0.006 (≈ 0.0141 µM)	≤ 0.003	0.05 (≈ 0.117 µM)	0.05 (≈ 0.117 µM)	0.05 (≈ 0.117 µM)
NCc1ccc(C2CCN(c3c(F)c(N)c4c(=O)c(C(=O)O)cn(C5CC5)c4c3F)C2)cc1 (stereo not shown) [Example 11, 5-Amino-7-[3-[4-(aminomethyl)phenyl]-1-pyrrolidinyl]-1-cyclopropyl-6,8-difluoro-1,4-dihydro-4-oxo-3-quinolinecarboxylic acid]	0.1 (≈ 0.22 µM)	0.1 (≈ 0.22 µM)	0.2 (≈ 0.44 µM)	0.2 (≈ 0.44 µM)	0.8 (≈ 1.76 µM)	0.013 (≈ 0.0286 µM)	≤ 0.003	0.013 (≈ 0.0286 µM)	0.013 (≈ 0.0286 µM)	0.013 (≈ 0.0286 µM)
Nc1c(F)c(N2CCC(c3cccnc3)C2)c(F)c2c1c(=O)c(C(=O)O)cn2C1CC1 (stereo not shown) [Example 22, 5-Amino-1-cyclopropyl-6,8-difluoro-1,4-dihydro-4-oxo-7-[3-(3-pyridinyl)-1-pyrrolidinyl]-3-quinoline-carboxylic acid]	0.1 (≈ 0.235 µM)	0.1 (≈ 0.235 µM)	0.2 (≈ 0.469 µM)	0.2 (≈ 0.469 µM)	1.6 (≈ 3.75 µM)	0.006 (≈ 0.0141 µM)	≤ 0.003	0.05 (≈ 0.117 µM)	0.025 (≈ 0.0586 µM)	0.025 (≈ 0.0586 µM)

More lines, in order of falling MIC (E. coli Vogel), values ahead:

MIC (E. coli Vogel) [µg/mL]	MIC (Enter. cloac.) [µg/mL]	MIC (Kleb. pneu.) [µg/mL]	MIC (Prot. rettg.) [µg/mL]	MIC (Pseu. aeru.) [µg/mL]	MIC (S. aureus R) [µg/mL]	MIC (S. aureus S) [µg/mL]	MIC (Streptococcus faec.) [µg/mL]	MIC (Streptococcus pneum.) [µg/mL]	MIC (Streptococcus pyog.) [µg/mL]	Structure (SMILES)
0.1 (≈ 0.254 µM)	0.1 (≈ 0.254 µM)	0.2 (≈ 0.508 µM)	0.2 (≈ 0.508 µM)	0.8 (≈ 2.03 µM)	0.006 (≈ 0.0153 µM)	≤ 0.003	0.05 (≈ 0.127 µM)	0.05 (≈ 0.127 µM)	0.05 (≈ 0.127 µM)	O=C(O)c1cn(C2CC2)c2cc(N3CCC(c4ccccn4)C3)c(F)cc2c1=O (stereo not shown) [Example 17, 1-Cyclopropyl-6-fluoro-1,4-dihydro-4-oxo-7-[3-(2-pyridinyl)-1-pyrrolidinyl]-3-quinolinecarboxylic acid]
0.05 (≈ 0.118 µM)	0.05 (≈ 0.118 µM)	0.05 (≈ 0.118 µM)	0.1 (≈ 0.237 µM)	0.8 (≈ 1.89 µM)	0.013 (≈ 0.0308 µM)	0.006 (≈ 0.0142 µM)	0.025 (≈ 0.0592 µM)	0.006 (≈ 0.0142 µM)	0.006 (≈ 0.0142 µM)	NCc1cccc(C2CCN(c3nc4c(cc3F)c(=O)c(C(=O)O)cn4C3CC3)C2)c1 (stereo not shown) [Example 6, 7-[3-[3-(Aminomethyl)phenyl]-1-pyrrolidinyl]-1-cyclopropyl-6-fluoro-1,4-dihydro-4-oxo-1,8-naphthyridine-3-carboxylic acid]
0.05 (≈ 0.11 µM)	0.05 (≈ 0.11 µM)	0.1 (≈ 0.22 µM)	0.2 (≈ 0.439 µM)	1.6 (≈ 3.51 µM)	0.025 (≈ 0.0549 µM)	0.013 (≈ 0.0285 µM)	0.025 (≈ 0.0549 µM)	0.025 (≈ 0.0549 µM)	0.025 (≈ 0.0549 µM)	NCc1cccnc1C1CCN(c2c(F)c(N)c3c(=O)c(C(=O)O)cn(C4CC4)c3c2F)C1 (stereo not shown) [Example 29, 5-Amino-7-[3-[3-(aminomethyl)-2-pyridinyl]-1-pyrrolidinyl]-1-cyclopropyl-6,8-difluoro-1,4-dihydro-4-oxo-3-quinolinecarboxylic acid]
0.05 (≈ 0.11 µM)	0.05 (≈ 0.11 µM)	0.1 (≈ 0.22 µM)	0.2 (≈ 0.44 µM)	0.8 (≈ 1.76 µM)	0.013 (≈ 0.0286 µM)	≤ 0.003	0.013 (≈ 0.0286 µM)	0.006 (≈ 0.0132 µM)	0.013 (≈ 0.0286 µM)	NCc1cccc(C2CCN(c3c(F)c(N)c4c(=O)c(C(=O)O)cn(C5CC5)c4c3F)C2)c1 (stereo not shown) [Example 8, 5-Amino-7-[3-[3-(aminomethyl)phenyl]-1-pyrrolidinyl]-1-cyclopropyl-6,8-difluoro-1,4-dihydro-4-oxo-3-quinolinecarboxylic acid]
0.05 (≈ 0.119 µM)	0.05 (≈ 0.119 µM)	0.1 (≈ 0.237 µM)	0.1 (≈ 0.237 µM)	0.8 (≈ 1.9 µM)	0.025 (≈ 0.0593 µM)	0.006 (≈ 0.0142 µM)	0.013 (≈ 0.0308 µM)	≤ 0.003	≤ 0.003	NCc1cccc(C2CCN(c3cc4c(cc3F)c(=O)c(C(=O)O)cn4C3CC3)C2)c1 (stereo not shown) [Example 7, 7-[3-[3-(Aminomethyl)phenyl]-1-pyrrolidinyl]-1-cyclopropyl-6-fluoro-1,4-dihydro-4-oxo-3-quinolinecarboxylic acid]
